From patent publication US8859541B2, “6-alkynylpyridines” (Boehringer Ingelheim International GmbH, priority 2012, dated 2014)

Key:
cIAP1 BIR3 = target: T1, cIAP1 BIR3 (Homo sapiens, UniProt Q13490); assay: cIAP1 BIR3 binding assay (DELFIA), displacement of SMAC peptide; settings: GST-fusion BIR3 domain (aa 256 to 363) 10 nM, SMAC peptide 10 nM; activity of the (S)-isomers
T1 construct: covering amino acids 256 to 363; cIAP1 BIR3; made in house; host or cells: E. coli
Protocol: Biological Methods XIAP BIR3 and cIAP1 BIR3 Binding Assays (DELFIA)
Peptide […]-Lys(Biotin), representing the N-terminus of mature human SMAC (SMAC peptide), was used as interaction partner in the protein-peptide interaction assay.
BIR3 domains (10 nM) were incubated with SMAC peptide (10 nM) in Assay Buffer (50 mM Tris, 120 mM NaCl, 0.1% BSA, 1 mM DTT, 0.05% TritonX100) for one hour at room temperature in the presence of inhibitiory compounds. The assay mixture was transferred to a strepatvidin coated plate and incubated for one hour at room temperature to allow binding of the biotinylated peptide and associated BIR3 domains to the plate. After several washing steps Eu labeled anti-GST antibody (e.g. Perkin Elmer DELFIA Eu-N1-antiGST AD0250) was added to detect BIR3 domain-SMAC peptide interactions according to Perkin Elmer's instructions. […] Time resolved Europium fluoresecence was measured in a Wallac Victor using Standard assay settings.
DELFIA assay results were plotted against compound concentrations and Software GraphPad Prizm was used to calculate half maximal inhibitory concentrations (IC50 values).

XIAP BIR3 = target: T2, XIAP BIR3 (Homo sapiens, UniProt P98170); assay: XIAP BIR3 binding assay (DELFIA), displacement of SMAC peptide; settings: GST-fusion BIR3 domain (aa 241 to 356) 10 nM, SMAC peptide 10 nM; activity of the (S)-isomers
T2 construct: covering amino acids 241 to 356; XIAP BIR3; made in house; host or cells: E. coli
In short: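 Each BIR3 domain (10 nM) incubated with biotinylated N-terminal SMAC peptide (10 nM) and compound for 1 h at room temp in Tris/NaCl buffer with BSA, DTT and Triton X-100. Captured on streptavidin plates; bound BIR3 detected by Eu-labelled anti-GST time-resolved fluorescence, giving IC50 values.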

T2 sequence (P98170 241-356): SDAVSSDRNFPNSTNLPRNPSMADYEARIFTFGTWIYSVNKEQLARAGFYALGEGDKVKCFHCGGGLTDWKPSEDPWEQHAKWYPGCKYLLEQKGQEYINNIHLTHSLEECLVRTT
T1 sequence (Q13490 256-363): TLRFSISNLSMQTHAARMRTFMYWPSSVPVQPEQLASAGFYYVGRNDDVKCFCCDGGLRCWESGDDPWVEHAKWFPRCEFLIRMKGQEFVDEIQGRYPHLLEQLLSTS

Structure (SMILES) | IC50 (cIAP1 BIR3) | IC50 (XIAP BIR3)
CNC(C)C(=O)Nc1ccc(-c2cncc(C(=O)OC)c2)c(C#Cc2cccc(C)c2)n1 (stereo not shown) [Example 13, methyl 5-[6-[[2-(methyl-amino)propanoyl]amino]-2-[2-(3-methylphenyl)ethynyl]-pyridin-3-yl]pyridine-3-carboxylate] | 12 nM | 96 nM
CNC(C)C(=O)Nc1ccc(-c2c(C)nc3ccccn23)c(C#Cc2ccc3c(ccc(=O)n3C)c2)n1 (stereo not shown) [Example 26, 2-(methylamino)-N-[5-(2-methylimidazo[1,2-a]pyridin-3-yl)-6-[2-(1-methyl-2-oxoquinolin-6-yl)ethynyl]pyridin-2-yl]propanamide] | 1 nM | 579 nM
CNC(C)C(=O)Nc1ccc(-c2c(C)nc3ccccn23)c(C#Cc2ccc3ncccc3c2)n1 (stereo not shown) [Example 28, 2-(methylamino)-N-[5-(2-methylimidazo[1,2-a]pyridin-3-yl)-6-(2-quinolin-6-ylethynyl)-pyridin-2-yl]propanamide] | 1 nM | 200 nM
CNC(C)C(=O)Nc1ccc(-c2c(C)nc3ccccn23)c(C#Cc2ccc3cnccc3c2)n1 (stereo not shown) [Example 29, N-[6-(2-isoquinolin-6-yl-ethynyl)-5-(2-methyl-imidazo[1,2-a]pyridin-3-yl)-pyridin-2-yl]-2-(methylamino)-propanamide] | 1 nM | 145 nM
CNC(C)C(=O)Nc1ccc(-c2c(C)nc3ccccn23)c(C#Cc2ccc3nc(C)ccc3c2)n1 (stereo not shown) [Example 30, 2-(methylamino)-N-[5-(2-methylimidazo[1,2-a]pyridin-3-yl)-6-[2-(2-methylquinolin-6-yl)ethynyl]pyridin-2-yl]propan-amide] | 1 nM | 417 nM
CNC(C)C(=O)Nc1ccc(-c2c(C)nc3ccccn23)c(C#Cc2ccc3c(c2)CN(C)C3=O)n1 (stereo not shown) [Example 31, 2-(methylamino)-N-[5-(2-methylimidazo[1,2-a]pyridin-3-yl)-6-[2-(2-methyl-1-oxo-3H-isoindol-5-yl)ethynyl]pyridin-2-yl]propanamide] | 1 nM | 228 nM
CNC(C)C(=O)Nc1ccc(-c2c(C)nc3ccccn23)c(C#Cc2ccc3c(c2)OCC(=O)N3C)n1 (stereo not shown) [Example 33, 2-(methylamino)-N-[5-(2-methylimidazo[1,2-a]pyridin-3-yl)-6-[2-(4-methyl-3-oxo-1,4-benzoxazin-7-yl)ethynyl]-pyridin-2-yl]propanamide] | 1 nM | 277 nM
CNC(C)C(=O)Nc1ccc(-c2c(C)nc3ccccn23)c(C#Cc2ccc(-c3ccon3)cc2)n1 (stereo not shown) [Example 34, 2-(methylamino)-N-[5-(2-methylimidazo[1,2-a]pyridin-3-yl)-6-[2-[4-(1,2-oxazol-3-yl)-phenyl]ethynyl]pyridin-2-yl]-propanamide] | 1 nM | 279 nM
CNC(C)C(=O)Nc1ccc(-c2c(C)nc(N3CCOCC3)nc2C)c(C#Cc2ccc3c(ccc(=O)n3C)c2)n1 (stereo not shown) [Example 35, N-[5-(4,6-dimethyl-2-morpholin-4-ylpyrimidin-5-yl)-6-[2-(1-methyl-2-oxoquinolin-6-yl)ethynyl]pyridin-2-yl]-2-(methylamino)propanamide] | 1 nM | 1480 nM
CNC(C)C(=O)Nc1ccc(-c2c(C)nc3ccccn23)c(C#Cc2ccc(-c3cccnc3)cc2)n1 (stereo not shown) [Example 36, 2-(methylamino)-N-[5-(2-methylimidazo[1,2-a]pyridin-3-yl)-6-[2-(4-pyridin-3-ylphenyl)-ethynyl]pyridin-2-yl]propan-amide] | 1 nM | 112 nM
CNC(C)C(=O)Nc1ccc(-c2c(C)nc3ccccn23)c(C#Cc2ccc(-n3cncn3)cc2)n1 (stereo not shown) [Example 37, 2-(methylamino)-N-[5-(2-methylimidazo[1,2-a]pyridin-3-yl)-6-[2-[4-(1,2,4-triazol-1-yl)-phenyl]ethynyl]pyridin-2-yl]-propanamide] | 1 nM | 166 nM
CNC(C)C(=O)Nc1ccc(-c2c(-c3ccncc3)nc3cc(C)ccn23)c(C#Cc2ccc(Cl)c(Cl)c2)n1 (stereo not shown) [Example 39, N-[6-[2-(3,4-dichlorophenyl)-ethynyl)-5-(7-methyl-2-pyridin-4-ylimidazo[1,2-a]pyridin-3-yl)-pyridin-2-yl]-2-(methylamino)-propanamide] | 1 nM | 87 nM
CNC(C)C(=O)Nc1ccc(-c2c(C)nc3ccccn23)c(C#Cc2ccc(C#N)c(Cl)c2)n1 (stereo not shown) [Example 41, N-[6-[2-(3-chloro-4-cyanophenyl)ethynyl]-5-(2-methylimidazo[1,2-a]pyridin-3-yl)pyridin-2-yl]-2-(methyl-amino)propanamide] | 1 nM | 123 nM
CNC(C)C(=O)Nc1ccc(-c2c(C)nc3ccccn23)c(C#Cc2ccc3ncsc3c2)n1 (stereo not shown) [Example 42, N-[6-[2-(1,3-benzothiazol-6-yl)-ethynyl]-5-(2-methyl-imidazo[1,2-a]pyridin-3-yl)-pyridin-2-yl]-2-(methylamino)-propanamide] | 1 nM | 94 nM
CNC(C)C(=O)Nc1ccc(-c2c(C)nc3ccccn23)c(C#Cc2ccc(-c3cnco3)cc2)n1 (stereo not shown) [Example 44, 2-(methylamino)-N-[5-(2-methylimidazo[1,2-a]pyridin-3-yl)-6-[2-[4-(1,3-oxazol-5-yl)-phenyl]ethynyl]pyridin-2-yl]-propanamide] | 1 nM | 136 nM
CNC(C)C(=O)Nc1ccc(-c2c(C)ncnc2C)c(C#Cc2ccc3cnccc3c2)n1 (stereo not shown) [Example 45, N-[5-(4,6-dimethylpyrimidin-5-yl)-6-(2-isoquinolin-6-yl-ethynyl)pyridin-2-yl]-2-(methyl-amino)propanamide] | 2 nM | 431 nM
CNC(C)C(=O)Nc1ccc(-c2c(C)nc3cc(Cl)ccn23)c(C#Cc2ccc3ncccc3c2)n1 (stereo not shown) [Example 46, N-[5-(7-chloro-2-methyl-imidazo[1,2-a]pyridin-3-yl)-6-(2-quinolin-6-ylethynyl)pyridin-2-yl]-2-(methylamino)propan-amide] | 1 nM | 145 nM
CNC(C)C(=O)Nc1ccc(-c2c(C)nc3cc(F)ccn23)c(C#Cc2ccc3ncccc3c2)n1 (stereo not shown) [Example 47, N-[5-(7-fluoro-2-methyl-imidazo[1,2-a]pyridin-3-yl)-6-(2-quinolin-6-ylethynyl)pyridin-2-yl]-2-(methylamino)propan-amide] | 1 nM | 180 nM
CNC(C)C(=O)Nc1ccc(-c2c(C)nc3ccccn23)c(C#Cc2ccc3nccn3c2)n1 (stereo not shown) [Example 48, N-[6-(2-imidazo[1,2-a]pyridin-6-ylethynyl)-5-(2-methyl-imidazo[1,2-a]pyridin-3-yl)-pyridin-2-yl]-2-(methylamino)-propanamide] | 1 nM | 212 nM
CNC(C)C(=O)Nc1ccc(-c2c(C)nc3ccccn23)c(C#Cc2ccc3cnn(C)c3c2)n1 (stereo not shown) [Example 49, 2-(methylamino)-N-[5-(2-methylimidazo[1,2-a]pyridin-3-yl)-6-[2-(1-methylindazol-6-yl)-ethynyl]pyridin-2-yl]propan-amide] | 1 nM | 107 nM
CNC(C)C(=O)Nc1ccc(-c2c(C)nc3ccccn23)c(C#Cc2cc3ccncc3s2)n1 (stereo not shown) [Example 50, 2-(methylamino)-N-[5-(2-methylimidazo[1,2-a]pyridin-3-yl)-6-(2-thieno[2,3-c]pyridin-2-ylethynyl)pyridin-2-yl]propan-amide] | 1 nM | 95 nM
CNC(C)C(=O)Nc1ccc(-c2c(C)nc3ccccn23)c(C#Cc2ccc3occc3c2)n1 (stereo not shown) [Example 52, N-[6-[2-(1-benzofuran-5-yl)-ethynyl)-5-(2-methyl-imidazo[1,2-a]pyridin-3-yl)-pyridin-2-yl]-2-(methylamino)-propanamide] | 1 nM | 145 nM
CNC(C)C(=O)Nc1ccc(-c2c(C)nc3ccccn23)c(C#Cc2ccc3c(c2)COC3)n1 (stereo not shown) [Example 53, N-[6-[2-(1,3-dihydro-2-benzofuran-5-yl)ethynyl]-5-(2-methylimidazo[1,2-a]pyridin-3-yl)pyridin-2-yl]-2-(methyl-amino)propanamide] | 1 nM | 116 nM
CNC(C)C(=O)Nc1ccc(-c2c(C)nc(N3CCOCC3)nc2C)c(C#Cc2ccc3ncccc3c2)n1 (stereo not shown) [Example 54, N-[5-(4,6-dimethyl-2-morpholin-4-ylpyrimidin-5-yl)-6-(2-quinolin-6-ylethynyl)-pyridin-2-yl]-2-(methylamino)-propanamide] | 1 nM | 863 nM
CNC(C)C(=O)Nc1ccc(N(C)C(=O)C2CCCC2)c(C#Cc2ccccc2)n1 (stereo not shown) [Example 248, N-methyl-N-[6-[[2-(methyl-amino)propanoyl]amino]-2-(2-phenylethynyl)pyridin-3-yl]-cyclopentanecarboxamide] | – | 794 nM
